Data: PMC12757955, “A nonavalent BODIPY with a multivalent arrangement of α-mannosides enables lectins recognition in fluorescence-based assays” (RSC Chemical Biology, 2025)

How the values were obtained:
[1] = target: T1, concanavalin A (ConA) (Canavalia ensiformis, UniProt P02866); test: Fluorescence polarization (FP) titration of BODIPY probes with ConA; format: binding; details: probe 0.5 µM, increasing ConA
T1 construct: purchased Sigma Aldrich L7647-100MG
Protocol: All experiments were conducted at 25 °C.
(§1) All experiments were performed at room temperature (25 °C).

[2] = target: T2, ConA (Canavalia ensiformis, UniProt P02866)
T2 construct: purchased Sigma Aldrich L7647-100MG
Protocol: Accordingly, preliminary agglutination experiments were performed by following a previously reported protocol,[28] thus expecting aggregation of lectin with the mannosylated BODIPYs driven by the molecular recognition of the mannose residues on the fluorescent probes. Accordingly, Tris-BODIPY-OH was used as a negative control. The changes in the absorption (λ = 490 nm) of the solutions of the glycoBODIPYs treated with a fixed concentration of ConA (20 µM in HEPES 25 mM, pH 7.6, 1 mM CaCl2, 1 mM MnCl2) were monitored over time (0–30 min, Fig. 3A).
Data are normalized according to the maximum optical density value.
A solution of ConA (20 µM) in the buffer (HEPES 25 mM pH 7.6, 1 mM CaCl2, 1 mM MnCl2) was prepared. In a 96-well plate (Microplate, 96 wells, PS, F-BOTTOM (CHIMNEY WELL), clear, non-binding) were placed 100 µL of the 20 µM solution of each BODIPY, then 100 µL of the solution of ConA was added. The mixture was gently shaken for 10 minutes, then the optical density at λ = 490 nm was measured every minute for 30 minutes. The measurements were carried out in triplicate.

[3] = target: T2, ConA; format: binding; details: BODIPY 500 nM, ConA 500 nM
Protocol: Accordingly, FLIM was used in this work to directly visualize the formation of the glycoBODIPY/ConA complexes. […] The color scale in the images corresponds to the dye lifetime measured by FLIM for each pixel in the image.
Fig. 4 FLIM images measured for: (left panels) the (free) BODIPY solutions 500 nM in HEPES 25 mM pH 7.6, 1 mM CaCl2, 1 mM MnCl2 and for (right panels) solutions of the BODIPYs (500 nM) combined with ConA (500 nM in HEPES 25 mM pH 7.6, 1 mM CaCl2, 1 mM MnCl2).
FLIM was performed at room temperature (20 °C) on a Nikon Ti AX-R NSPARC confocal microscope using a Nikon Plan Apo λD 100× oil immersion objective (NA = 1.45). The microscope is equipped with a two-channel PicoQuant FLIM compact module system. Images of 1024 × 1024 pixels were acquired using a 488 nm pulsed laser for excitation and recording photons of fluorescence emission at a wavelength of 620 ± 50 nm for 90 s at a frequency of 25 MHz through a PMA Hybrid single photon counting module and a MultiHarp 150 multichannel event timer. Lifetime histograms were calculated and analyzed using SymphoTime©. Samples were inserted into LabteK chambers, and the images were acquired at 10 µm from the coverslip to avoid interactions of the dye with the surface of the coverslip.

[4] = target: T2, ConA; format: binding; details: FCS, probe 500 nM, ConA 50 nM
Protocol: 500 nM solution of each dye in the absence or presence of 50 nM ConA was placed in a glass-bottom ibidi 18-well µ-slides, precoated with albumin (Sigma Aldrich) to reduce dye adsorption to the surface. FCS experiments were performed with an Abberior Instruments microscope in the confocal mode using the Olympus UPlanSApo 60×/1.2 water immersion objective and steered through the Imspector software. Fluorescence was excited by a 561 nm pulsed excitation laser at an average power of around 10 µW, and detected by an avalanche photodiode through a 0.9 Airy-unit pinhole and a 580–630 nm emission filter (Semrock). Intensity fluctuations were acquired in 2 µs bins for 15–120 seconds at least 5 times per sample. The intensity traces were autocorrelated and further analysed with the open source FoCuS-scan software (https://github.com/dwaithe/FCS_scanning_correlator)[41] employing the 3D-diffusion model (fits in Fig. 8) with the aspect ratio of the optical point-spread-function and anomalous diffusion exponent fixed to 10 and 0.9, respectively.

[5] = target: T2, ConA; test: Competitive fluorescence polarization assay (displacement of Man9-BODIPY from ConA); format: binding
Protocol: Titration experiments allowed us to define the concentration of ConA to be used in a competitive displacement assay, which was set to 2 µM.
The fluorescence polarization is expressed in millipolarization (mP) units (A).
as §1

CC1=C(C#CCOCC(CO)(CO)CO)C(C)=[N+]2C1=C(c1ccc(-n3cc(COCC(CO)(CO)CO)nn3)cc1)c1c(C)c(C#CCOCC(CO)(CO)CO)c(C)n1[B-]2(F)F [Tris-BODIPY-OH]
Binding to ConA in FP titration (in words) [1]: did not bind to ConA
Change of turbidity / absorption (λ = 490 nm) over time with ConA ([2]; BODIPY 20 µM solution, ConA 20 µM solution, HEPES pH 7.6, 0–30 min): No change in the absorption
Change of fluorescence lifetime histogram in the presence of ConA [3]: the peak of the histogram is unchanged
Shift of the autocorrelation curve in the presence of ConA [4]: no shift was observed

CO[C@H]1O[C@H](CO)[C@@H](O)[C@H](O)[C@@H]1O [α-O-methyl-D-mannopyranoside]
Deagglutination of glycoBODIPYs/ConA aggregates ([2]; 50 mM competitor added, optical density at 490 nm): fast deagglutination process

OC[C@H]1OC(O)[C@@H](O)[C@@H](O)[C@@H]1O (stereo partly drawn) [D-mannose]
Competitive displacement of the probe (in words) [5]: competitively displaced the probe
mP0 [5]: 113.9 ± 4.0
mPmax [5]: 432 ± 13
